Experimental data: PubChem BioAssay (NCI)
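Growth conditions: 96-well plates. Treatment: test compound, 48 hours, 5 concentrations. Analysis: linear interpolation between bracketing concentrations; unreached endpoints set to highest concentration. Abbreviation: GI50, concentration required for 50% inhibition of growth. TGI: concentration producing complete growth inhibition.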

Tests used:
Assay in all cases: inhibition of tumour cell growth, NCI panel, 48 h
786-0 renal = test system: 786-0 renal
A498 renal = test system: A498 renal
A549 NSCLC = test system: A549 NSCLC
ACHN renal = test system: ACHN renal
BT-549 breast = test system: BT-549 breast
CAKI-1 renal = test system: CAKI-1 renal
CCRF-CEM leukemia = test system: CCRF-CEM leukemia
COLO 205 colon = test system: COLO 205 colon
DU-145 prostate = test system: DU-145 prostate
EKVX NSCLC = test system: EKVX NSCLC
HCC-2998 colon = test system: HCC-2998 colon
HCT-116 colon = test system: HCT-116 colon
HCT-15 colon = test system: HCT-15 colon
HL-60(TB) leukemia = test system: HL-60(TB) leukemia
HOP-62 NSCLC = test system: HOP-62 NSCLC
HS 578T breast = test system: HS 578T breast
HT29 colon = test system: HT29 colon
IGROV1 ovarian = test system: IGROV1 ovarian
K-562 leukemia = test system: K-562 leukemia
KM12 colon = test system: KM12 colon
LOX IMVI melanoma = test system: LOX IMVI melanoma
M14 melanoma = test system: M14 melanoma
MALME-3M melanoma = test system: MALME-3M melanoma
MCF7 breast = test system: MCF7 breast
MDA-MB-231 breast = test system: MDA-MB-231 breast
MDA-MB-435 = test system: MDA-MB-435
MOLT-4 leukemia = test system: MOLT-4 leukemia
NCI-H226 lung = test system: NCI-H226 lung
NCI-H23 lung = test system: NCI-H23 lung
NCI-H460 lung = test system: NCI-H460 lung
NCI-H522 lung = test system: NCI-H522 lung
NCI/ADR-RES ovarian = test system: NCI/ADR-RES ovarian
OVCAR-3 ovarian = test system: OVCAR-3 ovarian
OVCAR-4 ovarian = test system: OVCAR-4 ovarian
OVCAR-5 ovarian = test system: OVCAR-5 ovarian
OVCAR-8 ovarian = test system: OVCAR-8 ovarian
PC-3 prostate = test system: PC-3 prostate
RPMI-8226 leukemia = test system: RPMI-8226 leukemia
RXF 393 renal = test system: RXF 393 renal
SF-268 CNS = test system: SF-268 CNS
SF-295 CNS = test system: SF-295 CNS
SF-539 CNS = test system: SF-539 CNS
SK-MEL-2 melanoma = test system: SK-MEL-2 melanoma
SK-MEL-28 melanoma = test system: SK-MEL-28 melanoma
SK-MEL-5 melanoma = test system: SK-MEL-5 melanoma
SK-OV-3 ovarian = test system: SK-OV-3 ovarian
SN12C renal = test system: SN12C renal
SNB-19 CNS = test system: SNB-19 CNS
SNB-75 CNS = test system: SNB-75 CNS
SW-620 colon = test system: SW-620 colon
T-47D breast = test system: T-47D breast
TK-10 renal = test system: TK-10 renal
U251 CNS = test system: U251 CNS
UACC-257 melanoma = test system: UACC-257 melanoma
UACC-62 melanoma = test system: UACC-62 melanoma
UO-31 renal = test system: UO-31 renal

SMILES: NS(=O)(=O)N(c1cc(C(F)(F)F)cc(C(F)(F)F)c1)C1CCN(Cc2ccc(C(F)(F)F)cc2)CC1
- GI50 (786-0 renal): 7.47 µM
- TGI (786-0 renal): 14.1 µM
- GI50 (A498 renal): 5.61 µM
- TGI (A498 renal): 12 µM
- GI50 (A549 NSCLC): 7.35 µM
- TGI (A549 NSCLC): 15.6 µM
- GI50 (ACHN renal): 7.92 µM
- TGI (ACHN renal): 14.6 µM
- GI50 (BT-549 breast): 7.99 µM
- TGI (BT-549 breast): 14.7 µM
- GI50 (CAKI-1 renal): 5.04 µM
- TGI (CAKI-1 renal): 11.1 µM
- GI50 (CCRF-CEM leukemia): 8.98 µM
- TGI (CCRF-CEM leukemia): 24.2 µM
- GI50 (COLO 205 colon): 7.86 µM
- TGI (COLO 205 colon): 14.6 µM
- GI50 (DU-145 prostate): 7.87 µM
- TGI (DU-145 prostate): 15.4 µM
- GI50 (EKVX NSCLC): 7.18 µM
- TGI (EKVX NSCLC): 15.2 µM
- GI50 (HCC-2998 colon): 6.9 µM
- TGI (HCC-2998 colon): 13.4 µM
- GI50 (HCT-116 colon): 5.41 µM
- TGI (HCT-116 colon): 11.4 µM
- GI50 (HCT-15 colon): 5.88 µM
- TGI (HCT-15 colon): 12.5 µM
- GI50 (HL-60(TB) leukemia): 1.63 µM
- TGI (HL-60(TB) leukemia): 7.84 µM
- GI50 (HOP-62 NSCLC): 7.94 µM
- TGI (HOP-62 NSCLC): 15 µM
- GI50 (HS 578T breast): 6.34 µM
- TGI (HS 578T breast): 22.9 µM
- GI50 (HT29 colon): 2.89 µM
- TGI (HT29 colon): 10.2 µM
- GI50 (IGROV1 ovarian): 5.56 µM
- TGI (IGROV1 ovarian): 11.6 µM
- GI50 (K-562 leukemia): 0.409 µM
- TGI (K-562 leukemia): 10.3 µM
- GI50 (KM12 colon): 6.81 µM
- TGI (KM12 colon): 14.9 µM
- GI50 (LOX IMVI melanoma): 7.43 µM
- TGI (LOX IMVI melanoma): 14 µM
- GI50 (M14 melanoma): 7.57 µM
- TGI (M14 melanoma): 14.5 µM
- GI50 (MALME-3M melanoma): 7.47 µM
- TGI (MALME-3M melanoma): 14.2 µM
- GI50 (MCF7 breast): 6.09 µM
- TGI (MCF7 breast): 12.3 µM
- GI50 (MDA-MB-231 breast): 9.65 µM
- TGI (MDA-MB-231 breast): 20.8 µM
- GI50 (MDA-MB-435): 7.04 µM
- TGI (MDA-MB-435): 13.6 µM
- GI50 (MOLT-4 leukemia): 3.77 µM
- TGI (MOLT-4 leukemia): 15.9 µM
- GI50 (NCI-H226 lung): 7.9 µM
- TGI (NCI-H226 lung): 15.5 µM
- GI50 (NCI-H23 lung): 6.88 µM
- TGI (NCI-H23 lung): 14 µM
- GI50 (NCI-H460 lung): 7.49 µM
- TGI (NCI-H460 lung): 16.4 µM
- GI50 (NCI-H522 lung): 6.42 µM
- TGI (NCI-H522 lung): 13.2 µM
- GI50 (NCI/ADR-RES ovarian): 6.82 µM
- TGI (NCI/ADR-RES ovarian): 13.3 µM
- GI50 (OVCAR-3 ovarian): 6.23 µM
- TGI (OVCAR-3 ovarian): 12.6 µM
- GI50 (OVCAR-4 ovarian): 6.89 µM
- TGI (OVCAR-4 ovarian): 14.5 µM
- GI50 (OVCAR-5 ovarian): 7.88 µM
- TGI (OVCAR-5 ovarian): 16 µM
- GI50 (OVCAR-8 ovarian): 8.35 µM
- TGI (OVCAR-8 ovarian): 17.4 µM
- GI50 (PC-3 prostate): 4.56 µM
- TGI (PC-3 prostate): 12.5 µM
- GI50 (RPMI-8226 leukemia): 6.88 µM
- TGI (RPMI-8226 leukemia): 20.3 µM
- GI50 (RXF 393 renal): 5.89 µM
- TGI (RXF 393 renal): 12.2 µM
- GI50 (SF-268 CNS): 7.55 µM
- TGI (SF-268 CNS): 17.9 µM
- GI50 (SF-295 CNS): 6.82 µM
- TGI (SF-295 CNS): 13.5 µM
- GI50 (SF-539 CNS): 7.8 µM
- TGI (SF-539 CNS): 15.3 µM
- GI50 (SK-MEL-2 melanoma): 9.91 µM
- TGI (SK-MEL-2 melanoma): 18.3 µM
- GI50 (SK-MEL-28 melanoma): 8.5 µM
- TGI (SK-MEL-28 melanoma): 17.7 µM
- GI50 (SK-MEL-5 melanoma): 7.63 µM
- TGI (SK-MEL-5 melanoma): 14.7 µM
- GI50 (SK-OV-3 ovarian): 9.26 µM
- TGI (SK-OV-3 ovarian): 22.2 µM
- GI50 (SN12C renal): 6.86 µM
- TGI (SN12C renal): 13.7 µM
- GI50 (SNB-19 CNS): 9.39 µM
- TGI (SNB-19 CNS): 20.2 µM
- GI50 (SNB-75 CNS): 2.86 µM
- TGI (SNB-75 CNS): 13 µM
- GI50 (SW-620 colon): 6.77 µM
- TGI (SW-620 colon): 15.4 µM
- GI50 (T-47D breast): 5.61 µM
- TGI (T-47D breast): 11.9 µM
- GI50 (TK-10 renal): 7.03 µM
- TGI (TK-10 renal): 14.5 µM
- GI50 (U251 CNS): 5.92 µM
- TGI (U251 CNS): 12.7 µM
- GI50 (UACC-257 melanoma): 7.54 µM
- TGI (UACC-257 melanoma): 15 µM
- GI50 (UACC-62 melanoma): 7.14 µM
- TGI (UACC-62 melanoma): 16.3 µM
- GI50 (UO-31 renal): 3.17 µM
- TGI (UO-31 renal): 9.87 µM
